{"source": "patent US12630633B2", "about": "“Antibody molecules to PD-1 and uses thereof” (Novartis AG, priority 2015, dated 2026)", "key": {"[1]": {"assay": "continuous daily dosing, transaminases, rats", "assay_type": "in vivo"}, "MNFS-60": {"test_system": "MNFS-60", "assay": "anti-proliferative effect on M-CSF dependent cell line MNFS-60"}, "MC38 [2]": {"test_system": "MC38", "assay": "MC38 syngeneic colorectal cancer model, Compound A15 with anti-PD-1", "assay_type": "in vivo", "settings": "preclinical data"}, "[3]": {"test_system": "human T cell proliferation", "settings": "cited from earlier work"}, "glioblastoma": {"test_system": "glioblastoma", "settings": "cited from earlier work"}, "[4]": {"assay": "continuous daily dosing, transaminases, monkeys", "assay_type": "in vivo"}, "[5]": {"test_system": "all other BaF3 cell lines", "assay": "kinase transfected BaF3 proliferation assays, all other BaF3 cell lines", "settings": "Mus musculus, BaF3, read-out: Cellular EC50 all other BaF3 cell lines"}, "BAF3-PDGFRβ": {"test_system": "BAF3-PDGFRβ", "assay": "kinase transfected BaF3 proliferation assay, BAF3-PDGFRβ", "settings": "Mus musculus, BaF3, read-out: Cellular EC50 BAF3-PDGFRβ"}, "[6]": {"test_system": "class I, IIa, IIIb, and IV isoforms (HDAC)", "settings": "majority of class I; cited from earlier work"}, "PD-L1 gene": {"test_system": "PD-L1 gene", "settings": "cited from earlier work"}, "MC38 [7]": {"test_system": "MC38", "assay": "MC38 murine syngeneic tumor model, panobinostat with anti-PD-1", "assay_type": "in vivo"}, "MC38 [8]": {"test_system": "MC38", "assay": "MC38 murine syngeneic tumor model, Compound A21 with anti-PD-1", "assay_type": "in vivo, C57B1/6 mice", "settings": "Compound A21 100 mg/kg orally once weekly (split 50 mg/kg b.i.d.), anti-PD-1 10 mg/kg IV once weekly", "method": "C57B1/6 mice were implanted with 1×10^6 MC38 cells/mouse. Vehicle and Compound A21 (50 mg/kg orally twice daily QW) were given for four doses, starting on day 4 post-tumor implant. Isotype and anti-mouse PD-1 were given 10 mg/kg IV QW."}, "T lymphocytes [9]": {"test_system": "T lymphocytes", "assay": "Compound A21 effects on T lymphocytes in vitro", "assay_type": "cell-based"}, "T lymphocytes [10]": {"test_system": "T lymphocytes", "assay": "T lymphocyte proliferation and cytokine production in vitro", "assay_type": "cell-based"}, "[11]": {"test_system": "PD-1-positive CD4+ and CD8+ lymphocytes", "settings": "5 mg per week, cited from earlier work"}, "[12]": {"test_system": "S6 kinase (S6K) phosphorylation", "settings": "predicted, cited from earlier work"}, "EGFR mutant NSCLC": {"test_system": "EGFR mutant NSCLC", "assay": "Compound A40 in EGFR mutant NSCLC patients", "assay_type": "in vivo, human"}, "xenografted tumors": {"test_system": "xenografted tumors", "settings": "cited from earlier work"}, "AML": {"test_system": "AML", "settings": "cited from earlier work"}, "[13]": {"test_system": "S6 kinase (S6K) phosphorylation", "settings": "predicted by modeling, cited from earlier work"}, "[14]": {"test_system": "PD-1-positive CD4+ and CD8+ lymphocytes", "settings": "5 mg per week, elderly subjects; cited from earlier work"}, "metastatic breast cancer": {"test_system": "metastatic breast cancer", "settings": "phase III, cited from earlier work"}, "CT26": {"test_system": "CT26", "settings": "cited from earlier work"}, "[15]": {"test_system": "KRAS-mutant CT26 colorectal tumor", "settings": "monotherapy, CT26 model; cited from earlier work"}, "metastatic TNBC": {"test_system": "metastatic TNBC", "settings": "Keynote-012; cited from earlier work"}, "[16]": {"settings": "0.5 mg daily dosing regimen, over the dosing interval"}}, "note": "Where two headings read alike, the source gives them in different places."}
{"compound": "CNC(=O)c1cc(Oc2ccc3nc(N[C@@H]4CCCC[C@H]4O)sc3c2)ccn1", "note": "[Compound A15]", "values": [{"measurement": "transaminases", "setting": "[1]", "value": "transaminases elevation"}, {"measurement": "EC50", "setting": "MNFS-60; read-out: EC50 anti-proliferative effect, MNFS-60, M-CSF dependent proliferation", "value": "< 71", "unit": "nM"}, {"measurement": "EC50", "setting": "MNFS-60; read-out: EC50 anti-proliferative effect, MNFS-60; M-CSF dependent proliferation", "value": 71, "unit": "nM"}, {"measurement": "once-a-week (Q1W) versus daily dose, TAMs depletion and anti-tumor activity", "setting": "MC38 [2]", "value": "performs at least as well as the daily dose"}, {"measurement": "suppressive function of tumor-educated monocytes on CD8+ and CD4+ T cells", "setting": "[3]; monocytes co-cultured with neuroblastoma cell lines", "value": "inhibit the suppressive function"}, {"measurement": "potential of myeloid cells to stimulate human T cell proliferation", "setting": "[3]; neuroblastoma (Mao et al. 2016)", "value": "recovered the potential of myeloid cells to stimulate human T cell proliferation"}, {"measurement": "established tumors and survival", "setting": "glioblastoma; 200 mg/kg daily, genetic mouse model of glioblastoma", "value": "induce regression of established tumors and increase survival"}, {"measurement": "xenograft growth", "setting": "glioblastoma; 200 mg/kg daily, proneural glioblastoma-derived xenografts", "value": "slow the growth"}, {"measurement": "M2-type macrophages", "setting": "glioblastoma; animal models of glioma", "value": "reduction and re-programming of M2-type macrophages"}, {"measurement": "transaminases", "setting": "[4]", "value": "transaminases elevation"}, {"measurement": "EC50", "setting": "[5]", "value": "> 10000", "unit": "nM"}, {"measurement": "EC50", "setting": "BAF3-PDGFRβ", "value": "≥ 2000", "unit": "nM"}]}
{"compound": "Cc1[nH]c2ccccc2c1CCNCc1ccc(/C=C/C(=O)NO)cc1", "note": "[Compound A19, Panobinostat]", "values": [{"measurement": "inhibition of HDAC activity", "setting": "[6]", "value": "highly effective at inhibiting the HDAC activity of the majority of class I, IIa, IIIb, and IV isoforms at low nanomolar concentrations"}, {"measurement": "expression of the PD-L1 gene", "setting": "PD-L1 gene; melanoma cell lines, cultured melanoma biopsy material, tumor-bearing mice", "value": "enhanced expression of the PD-L1 gene"}, {"measurement": "responses to treatment with a PD-1 inhibitor", "setting": "PD-L1 gene; mice", "value": "modestly improved responses"}, {"measurement": "animals achieving CRs", "setting": "MC38 [7]; panobinostat 12 mg/kg every other day, anti-PD1 10 mg/kg IV once weekly", "value": "two of ten"}, {"measurement": "body weight", "setting": "MC38 [7]; recovery after dosing of panobinostat was completed", "value": "Some reduction in body weight"}]}
{"compound": "CN[C@@H](C)C(=O)N[C@H](C(=O)N1CCC[C@H]1c1nc(C(=O)c2ccc(F)cc2)cs1)C1CCCCC1", "note": "[Compound A21]", "values": [{"measurement": "complete responses (CRs)", "setting": "MC38 [8]", "value": "neither single agent treatment yielded any CRs"}, {"measurement": "IFNgamma", "setting": "T lymphocytes [9]", "value": "induced"}, {"measurement": "production of IL-10", "setting": "T lymphocytes [9]", "value": "suppressed"}, {"measurement": "proliferation of T lymphocytes", "setting": "T lymphocytes [9]", "value": "stimulated"}, {"measurement": "tolerability", "setting": "1800 mg in combination with paclitaxel", "value": "poorly tolerated"}, {"measurement": "rate of pathological complete response of TNBC", "setting": "with paclitaxel, clinical data", "value": "increased the rate of pathological complete response"}, {"measurement": "IFNgamma", "setting": "T lymphocytes [10]", "value": "induced IFNgamma"}, {"measurement": "production of IL-10", "setting": "T lymphocytes [10]", "value": "suppressed production of IL-10"}, {"measurement": "proliferation of T lymphocytes", "setting": "T lymphocytes [10]", "value": "stimulated proliferation of T lymphocytes"}]}
{"compound": "COC1CC2CCC(C)C(O)(O2)C(=O)C(=O)N2CCCCC2C(=O)OC(C(C)CC2CCC(OCCO)C(OC)C2)CC(=O)C(C)/C=C(/C)C(O)C(OC)C(=O)C(C)CC(C)/C=C/C=C/C=C\\1C", "note": "(centres unmarked) [Compound A36, Everolimus]", "values": [{"measurement": "percentage of PD-1-positive CD4+ and CD8+ lymphocytes", "setting": "[11]; compared to placebo", "value": "reducing the percentage of PD-1-positive CD4+ and CD8+ lymphocytes"}, {"measurement": "response to an influenza vaccine", "setting": "[11]; elderly subjects", "value": "enhancing the response to an influenza vaccine"}, {"measurement": "inhibition of S6K phosphorylation", "setting": "[12]; [16]", "value": "about 38%"}, {"measurement": "inhibition of S6K phosphorylation", "setting": "[12]; 5 mg weekly dosing regimen", "value": "more than 50%"}, {"measurement": "inhibition of mTOR-mediated S6K phosphorylation", "setting": "[12]; 20 mg weekly dosing regimen", "value": "almost completely"}]}
{"compound": "Cc1cc(C(=O)Nc2nc3cccc(Cl)c3n2[C@@H]2CCCCN(C(=O)/C=C/CN(C)C)C2)ccn1", "note": "[Compound A40]", "values": [{"measurement": "efficacy", "setting": "EGFR mutant NSCLC", "value": "has shown efficacy"}]}
{"compound": "O=C(/C=C/c1ccc2ccc(C(F)(F)F)cc2n1)c1ccncc1", "note": "[PFK-158, (E)-1-(pyridin-4-yl)-3-(7-(trifluoromethyl)quinolin-2-yl)-prop-2-en-1-one]", "values": [{"measurement": "antitumor activity", "setting": "xenografted tumors", "value": "exhibit antitumor activity"}, {"measurement": "18FDG uptake", "setting": "xenografted tumors; xenografted tumors", "value": "reduce"}]}
{"compound": "Nc1ncn([C@H]2C[C@H](O)[C@@H](CO)O2)c(=O)n1", "note": "[decitabine, 5-aza-2′-deoxycytidine]", "values": [{"measurement": "complete remission rate (CR+CRp)", "setting": "AML; in vivo", "value": 17.8, "unit": "%"}, {"measurement": "median Overall Survival (OS)", "setting": "AML; intent-to-treat population", "value": 7.7, "unit": "months"}]}
{"compound": "CO[C@H]1C[C@@H]2CC[C@@H](C)[C@@](O)(O2)C(=O)C(=O)N2CCCC[C@H]2C(=O)O[C@H]([C@H](C)C[C@@H]2CC[C@@H](OCCO)[C@H](OC)C2)CC(=O)[C@H](C)/C=C(\\C)[C@@H](O)[C@@H](OC)C(=O)[C@H](C)C[C@H](C)/C=C/C=C/C=C/1C", "note": "[everolimus]", "values": [{"measurement": "inhibition of S6K phosphorylation", "setting": "[13]; [16]", "value": "about 38%"}, {"measurement": "inhibition of S6K phosphorylation", "setting": "[13]; 5 mg weekly dosing regimen", "value": "more than 50%"}, {"measurement": "inhibition of mTOR-mediated S6K phosphorylation", "setting": "[13]; 20 mg weekly dosing regimen", "value": "almost completely"}, {"measurement": "immune effect", "setting": "[14]", "value": "immunostimulatory"}]}
{"compound": "CC(=O)O[C@H]1C(=O)[C@@]2(C)[C@H]([C@H](OC(=O)c3ccccc3)[C@]3(O)C[C@H](OC(=O)[C@H](O)[C@@H](NC(=O)c4ccccc4)c4ccccc4)C(C)=C1C3(C)C)[C@]1(OC(C)=O)CO[C@@H]1C[C@@H]2O", "note": "[traditional paclitaxel, (2α,4α,5β,7β,10β,13α)-4,10-Bis(acetyloxy)-13-{[(2R,3S)-3-(benzoylamino)-2-hydroxy-3-phenylpropanoyl]oxy}-1,7-dihydroxy-9-oxo-5,20-epoxytax-11-en-2-yl benzoate]", "values": [{"measurement": "ORR", "setting": "metastatic breast cancer; first and second line or beyond", "value": 19, "unit": "%"}, {"measurement": "TTP", "setting": "metastatic breast cancer", "value": 16.9, "unit": "weeks"}]}
{"compound": "CC(=O)Nc1cccc(-n2c(=O)n(C3CC3)c(=O)c3c(Nc4ccc(I)cc4F)n(C)c(=O)c(C)c32)c1", "note": "[trametinib, N-(3-{3-cyclopropyl-5-[(2-fluoro-4-iodophenyl)amino]-6,8-dimethyl-2,4,7-trioxo-3,4,6,7-tetrahydropyrido[4,3-d]pyrimidin-1(2H)-yl}phenyl)acetamide]", "values": [{"measurement": "CD4+ T cells in tumor tissue", "setting": "CT26; CT26, treatment for seven days", "value": "significant increases of CD4+ T cells"}, {"measurement": "tumor infiltrating lymphocytes (TILs)", "setting": "CT26; CT26", "value": "increases the numbers of tumor infiltrating lymphocytes (TILs)"}, {"measurement": "CD4+ tumor infiltrating lymphocytes (TILs)", "setting": "[15]", "value": "increased"}, {"measurement": "prevalence of CD8+ TILs", "setting": "[15]", "value": "did not negatively affect"}]}
{"compound": "pembrolizumab", "values": [{"measurement": "responses, patients", "setting": "metastatic TNBC", "value": "five of 27"}]}
